# pIC50: −log10 of the molar value. Calls of active or inactive are those of the source. The calls are words filed in the database; no cut-off is given here.
# Target: T1, Aromatase (Homo sapiens, UniProt P11511)
# T1 sequence (P11511 whole entry): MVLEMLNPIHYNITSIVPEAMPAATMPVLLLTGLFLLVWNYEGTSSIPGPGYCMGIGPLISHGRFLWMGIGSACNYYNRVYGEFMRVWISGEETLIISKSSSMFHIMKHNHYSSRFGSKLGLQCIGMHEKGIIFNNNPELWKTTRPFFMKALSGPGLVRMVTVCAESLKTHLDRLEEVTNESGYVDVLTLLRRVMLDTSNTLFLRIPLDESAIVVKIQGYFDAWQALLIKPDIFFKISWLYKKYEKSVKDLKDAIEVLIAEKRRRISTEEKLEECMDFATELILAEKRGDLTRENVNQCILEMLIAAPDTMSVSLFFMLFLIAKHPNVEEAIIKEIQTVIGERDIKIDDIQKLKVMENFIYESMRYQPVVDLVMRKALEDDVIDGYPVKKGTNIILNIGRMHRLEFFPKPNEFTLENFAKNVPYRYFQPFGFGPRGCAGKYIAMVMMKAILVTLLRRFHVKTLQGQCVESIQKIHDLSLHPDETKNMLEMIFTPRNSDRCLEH
# Test: Inhibition of aromatase using 7-methoxy-4-trifluoromethyl coumarin as substrate after 30 mins by fluorescence-based colorimetric analysis
# Details: not given
row,SMILES,pIC50
1,N#Cc1ccc(C(c2ccc(C#N)cc2)n2nccn2)cc1,4.10
2,CCCCCCCc1cn(Cc2ccc(C#N)cc2)nn1,5.51
3,CCCc1cn(C(c2ccc(C#N)cc2)c2ccc(C#N)cc2)nn1,5.33
4,N#Cc1ccc(Cn2cncn2)cc1,6.82
5,CCCCCCc1cn(Cc2ccccc2)nn1,5.13
6,CCCCCCCCCCc1cn(Cc2ccccc2)nn1,5.19
7,COc1ccc(OCc2cn(C(c3ccccc3)c3ccccc3)nn2)cc1,4.82
8,c1ccc(C(c2ccccc2)n2ccnn2)cc1,5.34
9,N#Cc1ccc(C(c2ccc(C#N)cc2)n2cc(COc3ccc([N+](=O)[O-])cc3)nn2)cc1,5.11
10,c1ccc(Cn2nccn2)cc1,4.79
11,N#Cc1ccc(C(c2ccc(C#N)cc2)n2cc(C3CCCCC3)nn2)cc1,4.71
12,CCCCCCCCCCc1cn(C(c2ccccc2)c2ccccc2)nn1,4.87
13,c1ccc(Cn2ccnn2)cc1,4.93
14,c1ccc(OCc2cn(C(c3ccccc3)c3ccccc3)nn2)cc1,4.51
15,c1ccc(C(c2ccccc2)n2cncn2)cc1,5.96
16,CCCc1cn(Cc2ccc(C#N)cc2)nn1,5.36
17,N#Cc1ccc(Cn2ccnn2)cc1,7.00
18,CCCCCCCc1cn(C(c2ccccc2)c2ccccc2)nn1,4.71
19,c1ccc(Cn2cncn2)cc1,5.39

row,SMILES,pIC50
1,c1ccc(Cn2cc(C3CCCCC3)nn2)cc1,5.10
2,c1ccc(-c2cn(C(c3ccccc3)c3ccccc3)nn2)cc1,4.89
3,c1ccc(Cn2ccnc2)cc1 [BENZYLIMIDAZOLE],6.82
4,CCCCCCCCCCc1cn(C(c2ccc(C#N)cc2)c2ccc(C#N)cc2)nn1,4.80
5,c1ccc(Cn2cc(-c3ccccc3)nn2)cc1,5.01
6,CCCc1cn(C(c2ccccc2)c2ccccc2)nn1,4.96
7,N#Cc1ccc(Cn2nccn2)cc1,4.91
8,CCCCCCCc1cn(C(c2ccc(C#N)cc2)c2ccc(C#N)cc2)nn1,4.97
9,CCCCCCCc1cn(Cc2ccccc2)nn1,5.02
10,CCCCCCc1cn(Cc2ccc(C#N)cc2)nn1,5.28
11,c1ccc(C(c2ccccc2)n2nccn2)cc1,4.92
12,CCCCCCc1cn(C(c2ccc(C#N)cc2)c2ccc(C#N)cc2)nn1,5.29
13,N#Cc1ccc(Cn2cc(C3CCCCC3)nn2)cc1,4.97
14,CCCCCCCCCCc1cn(Cc2ccc(C#N)cc2)nn1,5.10
15,CCCCCCc1cn(C(c2ccccc2)c2ccccc2)nn1,4.83
16,N#Cc1ccc(OCc2cn(C(c3ccc(C#N)cc3)c3ccc(C#N)cc3)nn2)cc1,5.33
17,c1ccc(C(c2ccccc2)n2cc(C3CCCCC3)nn2)cc1,4.86
18,O=[N+]([O-])c1ccc(OCc2cn(C(c3ccccc3)c3ccccc3)nn2)cc1,4.94
19,CCCc1cn(Cc2ccccc2)nn1,4.90

# The remaining lines, values ahead:
row,pIC50,SMILES
1,5.22,N#Cc1ccc(Cn2cc(COc3ccccc3)nn2)cc1
2,4.92,COc1ccc(OCc2cn(C(c3ccc(C#N)cc3)c3ccc(C#N)cc3)nn2)cc1
3,5.04,N#Cc1ccc(Cn2cc(COc3ccc(C#N)cc3)nn2)cc1
4,4.78,N#Cc1ccc(OCc2cn(C(c3ccccc3)c3ccccc3)nn2)cc1
5,4.99,N#Cc1ccc(C(c2ccc(C#N)cc2)n2cc(-c3ccccc3)nn2)cc1
6,5.38,Cc1ccc(OCc2cn(Cc3ccc(C#N)cc3)nn2)cc1
7,5.56,O=[N+]([O-])c1ccc(OCc2cn(Cc3ccccc3)nn2)cc1
8,4.87,Clc1ccc(OCc2cn(C(c3ccccc3)c3ccccc3)nn2)cc1
9,4.57,Cc1ccc(OCc2cn(C(c3ccccc3)c3ccccc3)nn2)cc1
10,4.97,c1ccc(Cn2cc(COc3ccccc3)nn2)cc1
11,5.87,N#Cc1ccc(OCc2cn(Cc3ccccc3)nn2)cc1
12,4.87,N#Cc1ccc(C(c2ccc(C#N)cc2)n2cc(COc3ccc(-c4ccccc4)cc3)nn2)cc1
13,5.63,COc1ccc(OCc2cn(Cc3ccc(C#N)cc3)nn2)cc1
14,4.96,N#Cc1ccc(C(c2ccc(C#N)cc2)n2cc(COc3ccccc3)nn2)cc1
15,4.79,N#Cc1ccc(C(c2ccc(C#N)cc2)n2cc(COc3ccc(Cl)cc3)nn2)cc1
16,5.41,N#Cc1ccc(Cn2cc(COc3ccc(Cl)cc3)nn2)cc1
17,5.47,N#Cc1ccc(Cn2cc(-c3ccccc3)nn2)cc1
18,4.96,Cc1ccc(OCc2cn(C(c3ccc(C#N)cc3)c3ccc(C#N)cc3)nn2)cc1
19,5.25,N#Cc1ccc(Cn2cc(COc3ccc([N+](=O)[O-])cc3)nn2)cc1
20,5.30,Clc1ccc(OCc2cn(Cc3ccccc3)nn2)cc1
21,4.76,COc1ccc(OCc2cn(Cc3ccccc3)nn2)cc1
22,4.94,N#Cc1ccc(Cn2cc(COc3ccc(-c4ccccc4)cc3)nn2)cc1
23,5.64,Cc1ccc(OCc2cn(Cc3ccccc3)nn2)cc1
24,4.81,c1ccc(-c2ccc(OCc3cn(C(c4ccccc4)c4ccccc4)nn3)cc2)cc1
25,4.97,c1ccc(Cn2cc(COc3ccc(-c4ccccc4)cc3)nn2)cc1

# Test system: NCI-H295R
# Test: Antiproliferative activity against human NCI-H295R cells assessed as [3H]thymidine incorporation at 10 nM after 24 hrs by scintillation counting
# Type: functional
# Details: read-out: GI
row,SMILES,inhibition of growth at 0.01 µM [%]
1,N#Cc1ccc(C(c2ccc(C#N)cc2)n2cncn2)cc1 [LETROZOLE],10

# Test system: NCI-H295R
# Test: Antiproliferative activity against human NCI-H295R cells at 10 nM after 24 hrs by Cell titer blue assay
# Type: functional
# Details: not given
row,SMILES,growth inhibition (GI)
1,N#Cc1ccc(OCc2cn(Cc3ccccc3)nn2)cc1,inactive

# Same assay, conditions: read-out: GI
row,SMILES,inhibition of growth at 0.01 µM [%]
1,N#Cc1ccc(OCc2cn(C(c3ccc(C#N)cc3)c3ccc(C#N)cc3)nn2)cc1,76

# Test system: NCI-H295R
# Test: Antiproliferative activity against human NCI-H295R cells at 10 nM after 72 hrs by Cell titer blue assay
# Type: functional
# Details: not given
row,SMILES,growth inhibition (GI)
1,N#Cc1ccc(OCc2cn(Cc3ccccc3)nn2)cc1,inactive

# Same assay, conditions: read-out: GI
row,SMILES,inhibition of growth at 0.01 µM [%]
1,N#Cc1ccc(OCc2cn(C(c3ccc(C#N)cc3)c3ccc(C#N)cc3)nn2)cc1,99

# Test system: NCI-H295R
# Test: Antiproliferative activity against human NCI-H295R cells assessed as cell viability at 10 nM after 24 to 72 hrs by Cell titer blue assay
# Type: functional
# Details: read-out: GI
row,SMILES,inhibition of growth at 0.01 µM [%]
1,N#Cc1ccc(C(c2ccc(C#N)cc2)n2ccnc2)cc1,40

# Target: T1, Aromatase
# Test: Ratio of letrozole IC50 to compound IC50 for aromatase
# Details: not given
row,SMILES,Ratio IC50
1,N#Cc1ccc(Cn2ccnn2)cc1,12.5
